Tests used:
[1] = In vitro cytotoxic assay, HCT-116; assay type: cell-based; details: human, HCT-116 cells (colon cancer cell line)
Description: (§1) Skin normal fibroblastic cells were purchased from Lonza (Basel, Switzerland). […] All culture media were supplemented by 10% of FBS, 1% of penicillin–streptomycin and 2 mM glutamine.
(§2) Chemicals were solubilized in DMSO at a concentration of 10 mM (stock solution) and diluted in culture medium to the desired final concentrations. […] Cells were plated in 96-well plates (4000 cells/well). Twenty-four hours after seeding, the cells were exposed to chemicals. […] Image acquisition and analysis were performed using a Cellomics ArrayScan VTI/HCS Reader (ThermoScientific, Les Ulis, France). The survival percentages were calculated as the percentage of cell number after compound treatment over cell number after DMSO treatment. The relative IC50 values were calculated using the curve fitting XLfit 5.5.0.5 (idbs) integrated in Microsoft Excel as an add-on.
(§3) 4.3.1. Cell culture. Skin normal fibroblastic cells are purchased from Lonza (Basel, Switzerland). Huh7- […]
(§4) from ATCC (American Type Culture Collection). […]
(§5) supplemented by 10% of FBS, 1% of penicillin-streptomycin and 2 mM glutamine.
(§6) 4.3.2. Cytotoxic assay. Chemicals were solubilized in DMSO at a concentration of 10 mM (stock solution) and diluted in culture medium to the desired final concentrations. The dose effect cytotoxic assays (IC50 determination) were performed by increasing the concentrations of each chemical (final well […]
(§7) Cells were plated in 96-well plates
(§8) (4000 cells/well). Twenty-four hours after seeding, cells were exposed to chemicals. After 48h of treatment, cells were washed in PBS and fixed in cooled 90% ethanol/5% acetic acid for 20 min and the […]
(§9) Image acquisition and analysis were performed using a Cellomics ArrayScan VTI/HCS Reader (ThermoScientific). The survival percentages were calculated as the percentage of cell number after compound treatment over cell number after DMSO treatment. The relative IC50 were calculated using the curve fitting XLfit 5.5.0.5 (idbs) integrated in Microsoft Excel as an add-on. The 4 Parameter Logistic Model or Sigmoidal Dose-Response Model describing the sigmoid-shaped response pattern was used (fit = (A+[(B-A)/(1+[(C/x)^D])]) where fit is the response and X is the tested concentration of the compound. The lower asymptote is A (also referred to as the bottom of the curve or lower plateau or the min) and the upper asymptote is B (also referred to as the top of the curve or upper plateau or the max). The slope of the linear part of the curve is described by the factor D. The parameter C is the concentration corresponding to the response midway between A and B. C is called “relative IC50” because it refers to the maximum response obtained by a […]
(§10) The results are represented as the mean ± standard error (SE) calculated from at least three independent experiments.

[2] = In vitro cytotoxic assay, MCF-7; assay type: cell-based; details: human, MCF-7 cells (breast cancer cell line); note: 0.1-25 µM tested
Description: as §1, §2, §3, §4, §5, §6, §7, §8, §9, §10

[3] = In vitro cytotoxic assay, MDA-MB-231; assay type: cell-based; details: human, MDA-MB-231 cells (breast cancer cell line); read-out: In vitro cytotoxic activity IC50, MBA-MB-231; note: 0.1-25 µM tested
Description: as §1, §2, §3, §4, §5, §6, §7, §8, §9, §10

DYRK1A = details: in Figure 3; cited from earlier work
seven tumor cell lines = assay: In vitro cytotoxic assay, whole panel of cancer cell lines; assay type: cell-based, human; details: 48 h; for IC50: Homo sapiens, lowest to highest IC50 among the seven cancer cell lines, read-out: IC50 span over the cancer cell lines
Description: as §1, §2, §3, §4, §5, §6, §7, §8, §9, §10

Structure (SMILES)	melting point [°C]	IC50 at 48 h [1] [µM]	IC50 at 48 h [2] [µM]	IC50 at 48 h [3] [µM]	IC50 (DYRK1A) [µM]	IC50 (seven tumor cell lines) [µM]	Cytotoxicity over the cell lines studied (in words) (seven tumor cell lines; 0.1-25 μM)
COC(=N)c1nc2ccc3ncn(Cc4ccccc4)c(=O)c3c2s1 [Compound I, methyl 8-benzyl-9-oxo-8,9-dihydrothiazolo[5,4-f]quinazoline-2-carbimidate, reference compound]	–	18	17	21	0.3	–	–
COC(=N)c1nc2cc3c(=O)n(Cc4ccccc4)cnc3cc2s1 [Compound 6a, Methyl 7-benzyl-8-oxo-7,8-dihydrothiazolo[4,5-g]quinazoline-2-carbimidate]	213 to 214	20	17	20	–	17 to 27	–
COC(=N)c1nc2cc3ncn(Cc4ccccc4)c(=O)c3cc2s1 [Compound 6b, Methyl 7-benzyl-8-oxo-7,8-dihydrothiazolo[5,4-g]quinazoline-2-carbimidate]	244 to 245	1	1	3	–	1 to 3	–
COC(=N)c1nc2ccc3ncnc(Nc4ccc(OC)cc4F)c3c2s1 [Compound II, methyl 9-[(2-fluoro-4-methoxyphenyl)amino]thiazolo[5,4-f]quinazoline-2-carbimidate, reference compound]	–	4	5	5	0.00036	–	–
COC(=N)c1nc2ccc3c(=O)n(Cc4ccccc4)cnc3c2s1 [Compound 6d, Methyl 7-benzyl-6-oxo-6,7-dihydrothiazolo[4,5-h]quinazoline-2-carbimidate]	205 to 206	2	8	11	–	2 to 11	–
COC(=N)c1nc2c(ccc3c(=O)n(Cc4ccccc4)cnc32)s1 [Compound 6c, Methyl 7-benzyl-6-oxo-6,7-dihydrothiazolo[5,4-h]quinazoline-2-carbimidate]	213 to 214	3	7	13	–	3 to 13	–

Now from value to molecule, other results behind:

melting point [°C]	Structure (SMILES)	IC50 at 48 h [1] [µM]	IC50 at 48 h [2] [µM]	IC50 at 48 h [3] [µM]	IC50 (DYRK1A) [µM]	IC50 (seven tumor cell lines) [µM]	Cytotoxicity over the cell lines studied (in words) (seven tumor cell lines; 0.1-25 μM)
239 to 240	COC(=N)c1nc2cc3ncnc(Nc4ccc(OC)cc4F)c3cc2s1 [Compound 15b, Methyl 8-[(2-fluoro-4-methoxyphenyl)amino]thiazolo[5,4-g]quinazoline-2-carbimidate]	–	–	–	–	–	did not show detectable cytotoxicity
246 to 247	COC(=N)c1nc2cc3c(Nc4ccc(OC)cc4F)ncnc3cc2s1 [Compound 15a, Methyl 8-[(2-fluoro-4-methoxyphenyl)amino]thiazolo[4,5-g]quinazoline-2-carbimidate]	8	> 25	9	–	–	–

Source: article PMC11597202, “Novel Thiazole-Fused [4,5-g] or [5,4-g]Quinazolin-8-ones and Their Quinazoline Analogues: Synthesis and Biological Evaluation” (Pharmaceuticals, 2024)
